The results in this text go back to patent publication US20250134890A1, “ANTIMALARIAL HEXAHYDROPYRIMIDINE ANALOGUES” (UCB BIOPHARMA SRL, priority 2022, published 2025).

Where a name gives a salt, the structure may show the parent alone.

The first test has as its system Plasmodium falciparum: 3D7 strain. As to the kind of experiment: P. falciparum 3D7 asexual blood stage assay (SYBR green readout). Format: cell-based. The note with it: Plasmodium falciparum, 3D7, Erythrocyte, 72 h, P. falciparum 3D7 in human erythrocytes, 72 h incubation, SYBR green fluorescence. From the text:
The compounds of the present invention are potent inhibitors of the growth and propagation of the Plasmodium falciparum parasite in human blood.
The assay used to measure the effect of test compounds on a bloodstream stage of Plasmodium falciparum: 3D7 strain employs SYBR green as the readout. This is a dye that binds to double stranded deoxyribonucleic acid (DNA) with a resulting increase in fluorescence, allowing detection of P. falciparum DNA in infected erythrocytes, and thereby providing a measure of parasite growth and propagation.
Erythrocytes (A+blood) were prepared for both parasite culture and assay by washing 4 times with incomplete media (15.9 g RPMI 1640 (25 mM HEPES, L-glutamine), 1 g NaHCO3, 2 g glucose, 400 μL gentacin (500 mg/mL), 2 mL hypoxanthine solution (13.6 g/L in 0.1M NaOH pH 7.3) in 1 litre of media). The cells were centrifuged at 1800 g for 5 minutes, before decanting the supernatant and re-suspending in fresh incomplete media. On the final wash, the cells were re-suspended in complete media (incomplete media with 5 g/L AlbumaxII), and centrifuged at 1800 g for 3 minutes. This cell sediment was treated as 100% haematocrit.
P. falciparum 3D7 was cultured in erythrocytes at 5% haematocrit in complete media at 37° C. (1% O2, 3% CO2, balance N2). Cultures were split on a weekly basis to achieve a 1% parasitaemia in erythrocites at 5% haematocrit in fresh media. Culture media is replaced by fresh media every other day (2 times during the week).
On day 1, test compounds were added to assay plates using Echo dispensing technology ([…] and 20 points titration). 50 nL of each compound dilution was added to 50 μL of culture (5% haematocrit, 0.5% parasitaemia) and incubated for 72 h at 37° C. (1% O2, 3% CO2, balance N2). Final concentrations of test compounds ranged from 50,000 nM to 15 nM, in […].
On day 4, 10 μL SYBR green (Invitrogen S7563 supplied as 10,000×concentrate in DMSO) pre-diluted to 3×concentrate with Lysis buffer (20 mM Tris pH 7.9, 5% EDTA, 0.16% w/v, 1.6% TX100 v/v) was added to the cultures and incubated in the dark, overnight, at room temperature.
On day 5, fluorescent signal was measured using a BioTek plate reader (excitation 485 nm, emission 528 nm). All data were processed using IDBS ActivityBase. Raw data were converted into percent inhibition through linear regression by setting the high inhibition control (mefloquine) as 100% and the no inhibition control (DMSO) as 0%. Quality control criteria for passing plates were as follows: Z′>0.5, S:B>3, % CV(no inhibition control)<15. The formula used to calculate Z′ is: […]
All EC50 curve fitting was undertaken using the following bi-phasic two site dose response using XLfit model 300 (IDBS):
where A=100 minus the top of the upper curve 1 and the bottom of lower curve; B=Hill slope; log(C)=IC50 concentration at lower site; log(D)=IC50 concentration at upper site; x=inhibitor concentration; and y=% inhibition.
`C[C@@H]1C[C@@H](N2C(=N)N[C@](C)(c3cccc(-c4ccc(C5CC5)nc4)c3Cl)CC2=O)CCS1(=O)=O` (relative stereo) [Example 68, (6S)-6-[2-Chloro-3-(6-cyclopropyl-pyridin-3-yl)phenyl]-2-imino-6-methyl-3-[(2R*,4S*)-2-methyl-1,1-dioxothian-4-yl]hexahydro-pyrimidin-4-one hydrochloride]: the concentration for half-maximal inhibition (IC50) was 1140 nM. `C[C@H]1C[C@H](N2C(=N)N[C@](C)(c3cccc(-c4ccc(C5CC5)nc4)c3Cl)CC2=O)CCS1(=O)=O` (relative stereo) [Example 69, (6S)-6-[2-Chloro-3-(6-cyclopropyl-pyridin-3-yl)phenyl]-2-imino-6-methyl-3-[(2S*,4R*)-2-methyl-1,1-dioxothian-4-yl]hexahydro-pyrimidin-4-one hydrochloride] came in with an IC50 of 260 nM. As for `C[C@@H]1C[C@H](N2C(=N)N[C@](C)(c3cccc(-c4ccc(OC(F)F)nc4)c3Cl)CC2=O)CCS1(=O)=O` (relative stereo) [Example 70, (6S)-6-{2-Chloro-3-[6-(difluoro-methoxy)pyridin-3-yl]phenyl}-2-imino-6-methyl-3-[(2R*,4R*)-2-methyl-1,1-dioxothian-4-yl]-hexahydropyrimidin-4-one hydrochloride], the IC50 amounted to 85 nM. The same measure, in the same setting: next, `C[C@H]1C[C@@H](N2C(=N)N[C@](C)(c3cccc(-c4ccc(OC(F)F)nc4)c3Cl)CC2=O)CCS1(=O)=O` (relative stereo) [Example 71, (6S)-6-{2-Chloro-3-[6-(difluoro-methoxy)pyridin-3-yl]phenyl}-2-imino-6-methyl-3-[(2S*,4S*)-2-methyl-1,1-dioxothian-4-yl]-hexahydropyrimidin-4-one hydrochloride]: 151 nM; `C[C@H]1C[C@H](N2C(=N)N[C@](C)(c3cccc(-c4ccc(OC(F)F)nc4)c3Cl)CC2=O)CCS1(=O)=O` (relative stereo) [Example 73, (6S)-6-{2-Chloro-3-[6-(difluoro-methoxy)pyridin-3-yl]phenyl}-2-imino-6-methyl-3-[(2S*,4R*)-2-methyl-1,1-dioxothian-4-yl]-hexahydropyrimidin-4-one hydrochloride]: 227 nM. The molecule `C[C@@H]1C[C@H](N2C(=N)N[C@](C)(c3cccc(-c4ccc(Cl)cn4)c3Cl)CC2=O)CCS1(=O)=O` (relative stereo) [Example 74, (6S)-6-[2-Chloro-3-(5-chloro-pyridin-2-yl)phenyl]-2-imino-6-methyl-3-[(2R*,4R*)-2-methyl-1,1-dioxothian-4-yl]hexahydro-pyrimidin-4-one hydrochloride] had a 50% inhibitory concentration (IC50) of 59 nM. For the molecule `C[C@H]1C[C@@H](N2C(=N)N[C@](C)(c3cccc(-c4ccc(Cl)cn4)c3Cl)CC2=O)CCS1(=O)=O` (relative stereo) [Example 75, (6S)-6-[2-Chloro-3-(5-chloro-pyridin-2-yl)phenyl]-2-imino-6-methyl-3-[(2S*,4S*)-2-methyl-1,1-dioxothian-4-yl]hexahydro-pyrimidin-4-one hydrochloride], the IC50 stood at 217 nM. Same read-out and setting: next, `C[C@H]1C[C@H](N2C(=N)N[C@](C)(c3cccc(-c4ccc(Cl)cn4)c3Cl)CC2=O)CCS1(=O)=O` (relative stereo) [Example 76, (6S)-6-[2-Chloro-3-(5-chloro-pyridin-2-yl)phenyl]-2-imino-6-methyl-3-[(2S*,4R*)-2-methyl-1,1-dioxothian-4-yl]hexahydro-pyrimidin-4-one hydrochloride]: 2460 nM.

Still in this test, the particulars now being: Plasmodium falciparum, Erythrocyte; P. falciparum 3D7 in human erythrocytes, 72 h incubation, SYBR green fluorescence; read-out: IC50.
In the case of `C[C@@H]1C[C@@H](N2C(=N)N[C@](C)(c3cccc(-c4ccc(OC(F)F)nc4)c3Cl)CC2=O)CCS1(=O)=O` (relative stereo) [Example 72, (6S)-6-{2-Chloro-3-[6-(difluoro-methoxy)pyridin-3-yl|phenyl}-2-imino-6-methyl-3-[(2R*,4S*)-2-methyl-1,1-dioxothian-4-yl]-hexahydropyrimidin-4-one hydrochloride], the half-inhibitory concentration (IC50) turned out to be 913 nM.
